Source: patent US7833722B2, “Ligands for G protein-coupled receptor protein and use thereof” (Takeda Pharmaceutical Company Limited, priority 2004, dated 2010)

Experiments:
[1] = target: T1, GPR17 (Homo sapiens, UniProt Q13304); test: Suppression of forskolin-increased intracellular cAMP level in GPR17-expressed CHO cells; type: cell-based; design: expressed in transfected cells; conditions: forskolin 2 μM, 30 minutes, ALA in various concentrations, FIG. 2
Method: The GPR17-expressed CHO cells was incubated overnight and then washed with an assay medium (HBBBS supplemented with 0.1% bovine serum albumin and 0.2 mM IBMX, followed by incubation at 37° C. for 30 minutes under 5% CO2 conditions. ALA diluted with the assay medium in various concentrations and forskolin were added thereto in 2 μM, followed by incubation at 37° C. for 30 minutes under 5% CO2 conditions. The culture supernatant was discarded and the intracellular cAMP level was determined on a plate reader (EnVision, PerkinElmer), following the protocol of cAMP Screen Kit (Applied Biosystems).

[2] = test system: SP-induced biting response (pain response); test: Substance P-induced biting response after intrathecal administration to mice; type: in vivo; conditions: 0.66, 2.0 and 6.6 μg/mouse intrathecal with SP 10 μg, male ICR mice, counted for one minute, FIG. 3
Method: In order to examine effects of 5-aminolevulic acid (ALA) on pain, ALA was mixed with substance P (SP) and the mixture was intrathecally administered. Male ICR mice of 5 weeks age for intrathecal administration received incision on the dorsal tail and habituated at least for an hour. Thereafter, SP (10 μg) alone or a mixture of SP (10 μg) and ALA was intrathecally administered to the mice (5 μL/mouse) between the L5 and L6 level of the spinal cord, under no anesthesia. Immediately after administration, the number of times that the mice bit the underbody mutually was counted for one minute and the number was made an indicator of false pain response by SP.

[3] = target: T1, GPR17; test: SRE-luciferase reporter assay in GPR17-expressed HeLa cells
[4] = target: T2, GPR40 (Homo sapiens, UniProt O14842); test: SRE-luciferase reporter assay in GPR40 expression cells used for control; type: cell-based; conditions: PBG 1000 μM
T2 construct: expressed in transfected cells; host or cells: GPR40 expression cells
T2 sequence (O14842 whole entry, species assumed): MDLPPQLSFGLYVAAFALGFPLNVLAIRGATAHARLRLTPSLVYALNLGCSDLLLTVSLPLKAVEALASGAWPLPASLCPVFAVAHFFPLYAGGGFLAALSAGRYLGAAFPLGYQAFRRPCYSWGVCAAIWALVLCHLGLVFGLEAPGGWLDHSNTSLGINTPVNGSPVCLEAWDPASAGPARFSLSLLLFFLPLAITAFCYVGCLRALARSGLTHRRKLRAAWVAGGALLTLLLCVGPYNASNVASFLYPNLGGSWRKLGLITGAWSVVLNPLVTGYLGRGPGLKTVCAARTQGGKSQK

T1 sequence (Q13304 29-367): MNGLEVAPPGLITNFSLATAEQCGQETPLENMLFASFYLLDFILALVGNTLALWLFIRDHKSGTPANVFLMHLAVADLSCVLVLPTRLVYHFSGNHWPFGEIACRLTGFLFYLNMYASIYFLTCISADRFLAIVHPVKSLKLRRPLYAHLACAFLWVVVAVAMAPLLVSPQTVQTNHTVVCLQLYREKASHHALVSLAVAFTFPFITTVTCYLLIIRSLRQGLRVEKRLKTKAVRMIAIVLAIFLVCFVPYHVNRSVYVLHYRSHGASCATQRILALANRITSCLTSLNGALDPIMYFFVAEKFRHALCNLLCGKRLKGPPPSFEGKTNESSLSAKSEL

SMILES | intracellular cAMP level increased by forskolin addition [1] | effect on SP-induced biting response (pain response) [2] | luciferase activity in the GPR17-expressed cells (in words) ([3]; ALA 200 μM) | Increased Luciferase Activity (cps) by ALA in GPR17-Expressed Cells ([3]; ALA 200 μM, HeLa cells, 4 hours incubation) [cps] | luciferase activity (cps), GPR40 (control) [4] [cps] | Increased luciferase activity (cps) in the GPR17 expression cells by PBG ([3]; PBG 1000 μM) [cps] | luciferase activity in the GPR17 expression cells (in words) ([3]; PBG 1000 μM)
NCC(=O)CCC(=O)O [ALA, 5-aminolevulinic acid] | dose-dependent and specific decrease | significant suppression effect | increased luciferase activity | 6707 | – | – | –
NCc1[nH]cc(CCC(=O)O)c1CC(=O)O [PBG, porphobilinogen] | – | – | – | – | 3769 | 37999 | increased luciferase activity
